Test results as given in article PMC12408352, “Complete biosynthesis of salicylic acid from phenylalanine in plants” (Nature, 2025).

Tests used:
Format in all cases: biochemical
AIM1 (OsCHD), MBP-AIM1 = target: T1, AIM1 (OsCHD), MBP-AIM1 (Oryza sativa, UniProt Q8W1L6); test: product detection by LC-UV-MS; conditions: 0.5 mM CA-CoA, 1 mM NAD+, 100 mM Tris-HCl pH 7.5, MgCl2, KCl, pyruvate / lactate dehydrogenase, 30 °C
T1 construct: gene MFP; CDS from rice cDNA in pMAL-c2X, MBP fusion, E. coli BL21 (DE3), amylose resin
T1 sequence (Q8W1L6 1-726): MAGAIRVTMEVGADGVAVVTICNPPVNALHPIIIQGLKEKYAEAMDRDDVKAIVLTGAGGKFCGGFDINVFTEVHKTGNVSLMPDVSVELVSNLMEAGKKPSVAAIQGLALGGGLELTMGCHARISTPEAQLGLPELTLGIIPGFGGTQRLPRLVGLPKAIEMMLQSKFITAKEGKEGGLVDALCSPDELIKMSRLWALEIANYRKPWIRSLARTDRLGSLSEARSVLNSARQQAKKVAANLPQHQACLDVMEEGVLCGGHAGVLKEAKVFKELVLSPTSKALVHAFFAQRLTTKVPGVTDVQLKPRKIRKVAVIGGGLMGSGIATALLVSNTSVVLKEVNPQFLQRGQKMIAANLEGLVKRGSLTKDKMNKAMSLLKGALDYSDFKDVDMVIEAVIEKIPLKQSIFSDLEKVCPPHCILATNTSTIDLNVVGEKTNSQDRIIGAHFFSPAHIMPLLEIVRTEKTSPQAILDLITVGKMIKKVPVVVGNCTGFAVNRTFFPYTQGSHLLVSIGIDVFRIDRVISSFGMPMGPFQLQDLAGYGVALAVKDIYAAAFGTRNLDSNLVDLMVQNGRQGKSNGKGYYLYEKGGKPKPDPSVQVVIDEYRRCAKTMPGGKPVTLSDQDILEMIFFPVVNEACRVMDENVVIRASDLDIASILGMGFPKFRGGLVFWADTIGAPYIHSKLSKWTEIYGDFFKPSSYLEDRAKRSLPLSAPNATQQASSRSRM

PhCHD, MBP-PhCHD = target: T2, PhCHD, MBP-PhCHD (Petunia x hybrida, UniProt J9YIZ4); test: product detection by LC-UV-MS; conditions: positive control; AIM1 assay conditions, 0.5 mM CA-CoA, 1 mM NAD+, Tris-HCl pH 7.5, 30 °C
T2 construct: gene CHD; synthesized gene in pMAL-c5X, MBP fusion, E. coli BL21 (DE3), amylose resin
T2 sequence (J9YIZ4 1-724): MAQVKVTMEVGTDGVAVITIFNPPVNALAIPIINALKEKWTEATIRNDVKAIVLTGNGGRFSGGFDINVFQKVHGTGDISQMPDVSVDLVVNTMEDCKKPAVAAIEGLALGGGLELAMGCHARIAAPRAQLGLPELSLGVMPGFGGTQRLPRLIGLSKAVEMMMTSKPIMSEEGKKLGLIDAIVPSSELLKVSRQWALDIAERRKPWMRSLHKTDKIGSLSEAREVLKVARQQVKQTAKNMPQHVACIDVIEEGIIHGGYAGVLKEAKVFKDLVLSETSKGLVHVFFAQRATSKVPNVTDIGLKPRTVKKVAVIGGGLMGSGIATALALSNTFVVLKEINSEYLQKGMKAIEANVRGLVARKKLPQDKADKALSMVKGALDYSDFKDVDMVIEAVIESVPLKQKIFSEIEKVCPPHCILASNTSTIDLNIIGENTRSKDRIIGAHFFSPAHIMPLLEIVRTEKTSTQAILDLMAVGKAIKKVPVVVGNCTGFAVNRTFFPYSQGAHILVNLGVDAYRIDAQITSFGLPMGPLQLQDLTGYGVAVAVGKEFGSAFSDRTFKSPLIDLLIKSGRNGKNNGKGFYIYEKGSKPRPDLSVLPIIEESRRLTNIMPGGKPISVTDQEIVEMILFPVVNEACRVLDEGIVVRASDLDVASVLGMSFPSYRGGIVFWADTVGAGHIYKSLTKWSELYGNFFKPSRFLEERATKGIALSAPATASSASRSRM

OSD3, Flag-OSD3 = target: T3, OSD3, Flag-OSD3 (Oryza sativa, UniProt Q69P73); test: product detection by LC-UV-MS, yeast microsomes; conditions: 50 µM BB, 5 mM NADPH, 80 mM sodium phosphate pH 7.0, 5 mM DTT, 30 °C
T3 construct: gene Os09g0441400; Flag fusion in pESC-URA, microsomes of yeast strain WAT11
T3 sequence (Q69P73 1-514): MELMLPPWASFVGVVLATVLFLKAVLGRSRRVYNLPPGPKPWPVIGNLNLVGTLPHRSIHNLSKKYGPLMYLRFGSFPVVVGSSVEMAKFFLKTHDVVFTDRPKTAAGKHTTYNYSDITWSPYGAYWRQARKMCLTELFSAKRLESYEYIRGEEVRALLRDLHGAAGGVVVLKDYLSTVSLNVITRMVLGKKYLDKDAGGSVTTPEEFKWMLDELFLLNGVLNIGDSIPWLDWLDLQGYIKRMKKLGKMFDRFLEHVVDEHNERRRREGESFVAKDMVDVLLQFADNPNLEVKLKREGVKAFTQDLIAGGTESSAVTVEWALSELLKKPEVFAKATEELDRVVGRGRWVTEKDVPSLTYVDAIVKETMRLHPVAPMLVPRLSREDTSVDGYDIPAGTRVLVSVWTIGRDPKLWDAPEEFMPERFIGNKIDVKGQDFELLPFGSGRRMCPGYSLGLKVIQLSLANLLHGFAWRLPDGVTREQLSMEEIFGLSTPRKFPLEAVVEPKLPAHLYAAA

| SMILES | product detection by LC-UV-MS (AIM1 (OsCHD), MBP-AIM1) | product detection by LC-UV-MS (PhCHD, MBP-PhCHD) | product detection by LC-UV-MS, yeast microsomes (OSD3, Flag-OSD3) |
| --- | --- | --- | --- |
| CC(C)(COP(=O)(O)OP(=O)(O)OC[C@H]1O[C@@H](n2cnc3c(N)ncnc32)[C@H](O)[C@@H]1OP(=O)(O)O)[C@@H](O)C(=O)NCCC(=O)NCCSC(=O)CC(=O)c1ccccc1 [benzoylacetyl-CoA] | confirming the product of AIM1 as BAc-CoA | used it to produce a BAc-CoA standard | – |
| O=C(OCc1ccccc1)c1ccccc1 [benzyl benzoate] | – | – | OSD3 acts as a benzyl benzoate 2-hydroxylase (BB2H) to catalyse the hydroxylation of BB |
| CC(C)(COP(=O)(O)OP(=O)(O)OC[C@H]1O[C@@H](n2cnc3c(N)ncnc32)[C@H](O)[C@@H]1OP(=O)(O)O)[C@@H](O)C(=O)NCCC(=O)NCCSC(=O)/C=C/c1ccccc1 [cinnamoyl-CoA] | AIM1 functions as a CA-CoA hydratase-dehydrogenase for converting CA-CoA to BAc-CoA | The MBP–PhCHD enzyme was used as a positive control | – |
| O=C(OCc1ccccc1)c1ccccc1O [benzyl salicylate] | – | – | to catalyse the hydroxylation of BB, yielding BS |
